Measured values taken from patent US20210047290A1, “SPIRO COMPOUND AS INDOLEAMINE-2,3-DIOXYGENASE INHIBITOR” (SHANGHAI INSTITUTE OF ORGANIC CHEMISTRY, CHINESE ACADEMY OF …, priority 2018, published 2021).

Columns and labels:
IDO in Hela cells = target: T1, IDO in Hela cells (Homo sapiens, UniProt P14902); assay: Test of cellular activity (kynurenine formation in interferon γ stimulated Hela cells); assay type: cell-based; conditions: head prints IPS cells, method: Hela cells, 48 h incubation, read at 480 nm
T1 construct: endogenous in cells; host or cells: HeLa cells stimulated with human interferon γ
T1 sequence (P14902 whole entry): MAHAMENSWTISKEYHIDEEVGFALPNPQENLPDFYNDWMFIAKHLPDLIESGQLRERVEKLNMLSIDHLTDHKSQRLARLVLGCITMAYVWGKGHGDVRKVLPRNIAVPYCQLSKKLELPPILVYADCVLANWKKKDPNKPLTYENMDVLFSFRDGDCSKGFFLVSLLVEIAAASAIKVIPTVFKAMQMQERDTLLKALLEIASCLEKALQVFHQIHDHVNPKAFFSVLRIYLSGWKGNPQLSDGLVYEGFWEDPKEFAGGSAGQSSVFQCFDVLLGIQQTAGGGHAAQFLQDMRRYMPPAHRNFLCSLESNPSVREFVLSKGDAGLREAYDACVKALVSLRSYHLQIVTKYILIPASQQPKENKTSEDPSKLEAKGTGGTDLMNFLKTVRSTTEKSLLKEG
Procedure: (3) Test Method of Cellular Activity
Hela cells (80 μL) was inoculated on a 96-well plate (5×10^3 for each well) to grow overnight. After the compound was diluted the next day, 1 μL of diluent and 100 μL of culture medium which contains human interferon γ (final concentration: 50 ng/m) were added into the 96-well plate to make the final volume reach […]. After incubating for 48 h, 80 μL of supernate was transferred from each well to a new […]. 10 μL 6.1N trichloroacetic acid was added into each well for mixing and incubation at 50° C. for 30 min, and […] N formyl-kynurenin into kynurenine. The reaction mixture was centrifuged at 2,500 rpm for 10 min, 70 μL of supernatant of each well was transferred to a new 96-well plate and mixed with 100 μL of 2% (w/v) dimethylaminobenzaldehyde acetic acid solution. After placing for 5-10 min, measurement was carried out at 480 nm with the SPECTRAmax i13 reader.

IDO enzyme = target: T2, IDO enzyme (Homo sapiens, UniProt P14902); assay: IDO enzyme inhibitory activity test; assay type: biochemical; conditions: recombinant IDO, D-Trp substrate, reading at 321 nm for 40 min
T2 construct: made in house; host or cells: E. coli BL21 (pET28a-IDO plasmid)
T2 sequence (P14902 whole entry): as above
Procedure: (1) Induced Expression and Purification Method of IDO Protein
Firstly, DO gene was amplified with PCR, and the amplified PCR product was recycled. Digestion (2 h under 37° C.), gel running and recycling were carried out on the pET28a plasmid (purchased from Shanghai Baomanbio Co., Ltd.) and IDO gel with two restriction enzymes (EcoR I and Xho I). T4 ligase was connected with the product overnight, added into DH5α competence, placed on the ice for 30 min and subjected to thermal shock at 42° C. for 90 s.
BL21 which contained pET28a-IDO plasmid was shaken vigorously at 37° C. till OD600 was 0.6-0.8, added into hemin (final concentration: 40 μM) and 0.5 mM IPTG (isopropyl-3-D-IPTG) and induced under 16° C. for 20 h; after induction, thallus were collected centrifugally at 4° C. and 6,000 rpm, washed with 50 mM PBS (pH 7.5) and collected again centrifugally.
The collected thallus were suspended again with buffer solution (50 mM PBS pH 7.5). An appropriate amount of 100×PMSF was added. The thallus were disrupted with cell disruption instrument (1,400 bar) at 4° C. for three times. The split bacteria were centrifuged at 18,000×g for 45 min. The sediment was removed but supernatant was retained and filtered with a 0.45 μm film at 4° C.; the nickel column was balanced with lysis buffer (50 mM PBS pH7.5) by 3 column volumes.
The supernatant was loaded on the nickel column and washed with wash solution (50 mM PBS pH7.5, 50 mM imidazole) by 4 column volume. Finally, protein was eluted with eluant (50 mM PBS pH7.5, 250 mM imidazole); dialyzed for 6 h with dialysis solution (50 mM PBS pH7.5), concentrated, sub-packaged, quickly frozen with liquid nitrogen and stored at −80° C. for backup.
(2) Test Method for IDO Enzyme Inhibitory Activity
Firstly, the compound was diluted by triple gradient. 1 μL of each concentration was added into a 96-well plate; 50 μL of IDO Enzyme solution PBS (pH 7.5; final concentration: 50 mM) was added: 25 μL of substrate 1 (methylene blue, final concentration: […]; catalase, final concentration: 0.2 μg/L; PBS (pH 7.5; final concentration: 50 mM) mixture and 25 μL of substrate 2 (D-Trp, final concentration: 1.5 mM; sodium ascorbate, final concentration: 20 mM; PBS (pH 7.5), final concentration 50 mM) mixture were added for starting the reaction. Finally, OOD321 nm reading was carried out for 40 min.

Row | SMILES | IC50 (IDO in Hela cells) [µM] | IC50 (IDO enzyme) [µM]
1 | O=C(Nc1ccc(Cl)cc1)C1CC2(C1)CC(c1ccnc3ccccc13)C2 (racemic) [Example 1, (±)-N-(4-chlorophenyl)-6-(quinolin-4-yl)spiro[3.3]heptane-2-carboxamide] | > 0.05 | 1.1
2 | O=C(Nc1ccc(Cl)cc1)C1CC12CCC(c1ccnc3ccccc13)CC2 (racemic) [Example 2A, (±)-(cis/trans)-N-(4-chlorophenyl)-6-(quinolin-4-yl)spiro[2.5]octane-1-carboxamide] | > 0.05 | 1.3
3 | O=C(Nc1ccc(Cl)cc1)C1CC2(C1)CC(c1ccnc3ccc(F)cc13)C2 (racemic) [Example 3, (±) N-(4-chlorophenyl)-6-(6-fluoroquinolin-4-yl)spiro[3.3]heptane-2-carboxamide] | > 0.003 | 0.63
4 | O=C(Nc1ccc(Cl)cc1)C1CC12CCC(c1ccnc3ccc(F)cc13)CC2 (racemic) [Example 4, (±)-(cis/trans)-N-(4-chlorophenyl)-6-(6-fluoroquinolin-4-yl)spiro[2.5]octane-1-carboxamide] | 0.022 | 0.16
5 | O=C(Nc1ccc(F)cc1)C1CC12CCC(c1ccnc3ccc(F)cc13)CC2 (racemic) [Example 5, (±)-(cis/trans)-N-(4-fluorophenyl)-6-(6-fluoroquinolin-4-yl)spiro[2.5]octane-1-carboxamide] | > 0.003 | 0.33
6 | O=C(Nc1ccc(C(F)(F)F)cc1)C1CC12CCC(c1ccnc3ccc(F)cc13)CC2 (racemic) [Example 6, (±)-(cis/trans)-6-(6-fluoroquinolin-4-yl)-N-(4-trifluoromethyl)phenyl)spiro[2.5]octane-1-carboxamide] | > 0.004 | 0.47
7 | O=C(Nc1ccccc1)C1CC12CCC(c1ccnc3ccc(F)cc13)CC2 (racemic) [Example 7, (±)-(cis/trans)-6-(6-fluoroquinolin-4-yl)-N-phenylspiro[2.5]octane-1-carboxamide] |  | 0.99
8 | O=C(NC1CC12CCC(c1ccnc3ccc(F)cc13)CC2)c1ccc(Cl)cc1 (racemic) [Example 8, (±)-(cis/trans)-4-chloro-N-(6-(6-fluoroquinolin-4-yl)spiro[2.5]octan-1-yl)benzamide] | > 0.03 | 0.99
9 | O=C(Nc1ccc(Cl)cc1)NC1CC12CCC(c1ccnc3ccc(F)cc13)CC2 (racemic) [Example 9, (±)-(cis/trans)-1-(4-chlorophenyl)-3-(6-(6-fluoroquinolin-4-yl)spiro[2.5]octan-1-yl)urea] |  | 3
10 | O=C(Nc1ccc(Cl)cc1)NC1CCC12CCC(c1ccnc3ccc(F)cc13)CC2 (racemic) [Example 11A, (±) 1-(4-chlorophenyl)-3-(7-(6-fluoroquinolin-4-yl)spiro[3.5]nonan-1-yl)urea] |  | 6.9
11 | O=C(Nc1ccc(Cl)cc1)NC1CCC12CCC(c1ccnc3ccc(F)cc13)CC2 (racemic) [Example 11B, (±) 1-(4-chlorophenyl)-3-(7-(6-fluoroquinolin-4-yl)spiro[3.5]nonan-1-yl)urea] |  | 2.7
12 | O=C(Nc1ccc(Cl)cc1)NC1CC2(CCC(c3ccnc4ccc(F)cc34)CC2)C1 (racemic) [Example 16, (±) 1-(4-chlorophenyl)-3-(7-(6-fluoroquinolin-4-yl)spiro[3.5]nonan-2-yl)urea] |  | 3.2
13 | O=C(NC1CC2(CCC(c3ccnc4ccc(F)cc34)CC2)C1)c1ccc(Cl)cc1 (racemic) [Example 17, (±) 4-chloro-N-(7-(6-fluoroquinolin-yl)spiro[3.5]nonan-2-yl)benzamide] |  | 0.48
14 | O=C(Nc1ccc(Br)cc1)C1CC2(CCC(c3ccnc4ccc(F)cc34)CC2)C1 (racemic) [Example 18, (±) N-(4-bromophenyl)-7-(6-fluoroquinoline-4-yl)spiro[3.5]nonane-2-carboxamide] | 0.00252 | 0.2
15 | O=C(Nc1ccc(F)cc1)C1CC2(CCC(c3ccnc4ccc(F)cc34)CC2)C1 (racemic) [Example 19, (±) N-(4-fluorophenyl)-7-(6-fluoroquinolin-4-yl)spiro[3.5]nonane-2-carboxamide] | 0.00336 | 0.4
16 | O=C(NC1CC2(CCC(c3ccnc4ccc(F)cc34)CC2)C1)c1ccc(Br)cc1 (racemic) [Example 20, (±) 4-bromo-N-(7-(6-fluoroquinolin-4-yl)spiro[3.5]nonan-2-yl)benzamide] | > 0.01 | 2.42
17 | O=C(NC1CC2(CCC(c3ccnc4ccc(F)cc34)CC2)C1)c1ccc(F)cc1 (racemic) [Example 21, (±) 4-fluoro-N-(7-(6-fluoroquinolin-4-yl)spiro[3.5]nonan-2-yl)benzamide] | > 0.01 | 0.48
18 | O=C(Nc1ccc(Cl)cc1)C1CCC12CCC(c1ccnc3ccc(F)cc13)CC2 (single isomer, unassigned) [Example 10A, (±) N-(4-chlorophenyl)-7-(6-fluoroquinolin-4-yl)spiro[3.5]nonane-1-carboxamide] | > 0.003 | 0.52
19 | O=C(Nc1ccc(Cl)cc1)C1CCC12CCC(c1ccnc3ccc(F)cc13)CC2 (single isomer, unassigned) [Example 10B, (±) N-(4-chlorophenyl)-7-(6-fluoroquinolin-4-yl)spiro[3.5]nonane-1-carboxamide] |  | 2.1

Next, values leading:

Row | IC50 (IDO in Hela cells) [µM] | IC50 (IDO enzyme) [µM] | SMILES
20 |  | 1.2 | O=C(NC1CCC12CCC(c1ccnc3ccc(F)cc13)CC2)c1ccc(Cl)cc1 (racemic) [Example 12A, (±) 4-chloro-N-(7-(6-fluoroquinolin-4-yl)spiro[35]nonan-1-yl)benzamide]
21 | > 0.03 | 1.18 | O=C(NC1CCC12CCC(c1ccnc3ccc(F)cc13)CC2)c1ccc(Cl)cc1 (racemic) [Example 12B, (±) 4-chloro-N-(7-(6-fluoroquinolin-4-yl)spiro[3.5]nonan-1-yl)benzamide]
22 |  | 7.6 | O=C(Nc1cccc(Br)c1)C1CCC12CCC(c1ccnc3ccc(F)cc13)CC2 (racemic) [Example 14A, (±)-N-(3-bromophenyl)-7-(6-fluoroquinolin-4-yl)spiro[3.5]nonane-1-carboxamide]
23 |  | 7 | O=C(Nc1cccc(Br)c1)C1CCC12CCC(c1ccnc3ccc(F)cc13)CC2 (racemic) [Example 14B, (±)-N-(3-bromophenyl)-7-(6-fluoroquinolin-4-yl)spiro[3.5]nonane-1-carboxamide]
24 |  | 20 | O=S(=O)(NC1CCC12CCC(c1ccnc3ccc(F)cc13)CC2)c1ccc(Cl)cc1 (single isomer, unassigned) [Example 13A, (±) 4-chloro-N-(7-(6-fluoroquinolin-4-yl)spiro[3.5]nonan-1-yl)benzenesulfonamide]
25 |  | 157 | O=S(=O)(NC1CCC12CCC(c1ccnc3ccc(F)cc13)CC2)c1ccc(Cl)cc1 (single isomer, unassigned) [Example 13B, (±) 4-chloro-N-(7-(6-fluoroquinolin-4-ylspiro[3.5]nonan-1-yl)benzenesulfonamide]
26 |  | 4.16 | O=C(Nc1ccc(Cl)cc1)C1CCC2(CC1)CC(c1ccnc3ccc(F)cc13)C2 (single isomer, unassigned) [Example 22A, N-(4-chlorophenyl)-2-(6-fluoroquinoline-4-yl)spiro[3.5]nonane-7-carboxamide]
27 |  | 3.44 | O=C(Nc1ccc(Cl)cc1)C1CCC2(CC1)CC(c1ccnc3ccc(F)cc13)C2 (single isomer, unassigned) [Example 22B, N-(4-chlorophenyl)-2-(6-fluoroquinoline-4-yl)spiro[3.5]nonane-7-carboxamide]
